Measurements from patent publication US10597388B2, “Pyridazinone herbicides” (FMC CORPORATION, priority 2014, dated 2020).

Key:
Test in all cases: Test D controlled growth environment herbicide test, pre- and postemergence
Assay type in all cases: in vivo
[1] = system: galium (catchweed bedstraw, Galium aparine)
Description: (§1) Seeds of plant species selected from bluegrass (annual bluegrass, Poa annua), blackgrass (Alopecurus myosuroides), Canada thistle (Cirsium arvense), canarygrass (Phalaris minor), chickweed (common chickweed, Stellaria media), geranium, cutleaf (cutleaf geranium, Geranium dissectum), galium (catchweed bedstraw, Galium aparine), bromegrass, downy (downy bromegrass, Bromus tectorum), field poppy (Papaver rhoeas), field violet (Viola arvensis), foxtail, green (green foxtail, Setaria viridis), deadnettle (henbit deadnettle, Lamium amplexicaule), ryegrass, Italian (Italian ryegrass, Lolium multiflorum), kochia (Kochia scoparia), lambsquarters (Chenopodium album), oilseed rape (Brassica napus), pigweed (Amaranthus retroflexus), chamomile (scentless chamomile, Matricaria inodora), Russian thistle (Salsola kali), speedwell (bird's-eye speedwell, Veronica persica), barley, spring (spring barley, Hordeum vulgare), wheat, spring (spring wheat, Triticum aestivum), buckwheat, wild (wild buckwheat, Polygonum convolvulus), mustard, wild (wild mustard, Sinapis arvensis), oat, wild (wild oat, Avena fatua), radish, wild (wild radish, Raphanus raphanistrum), windgrass (Apera spica-venti), barley, winter (winter barley, Hordeum vulgare), and wheat, winter (winter wheat, Triticum aestivum) were planted into a silt loam soil and treated preemergence with test chemicals formulated in a non-phytotoxic solvent mixture which included a surfactant.
(§2) At the same time, these species were planted in pots containing Redi-Earth® planting medium (Scotts Company, 14111 Scottslawn Road, Marysville, Ohio 43041) comprising spaghnum peat moss, vermiculite, wetting agent and starter nutrients and treated with postemergence applications of the test chemicals formulated in the same manner. Plants ranged in height from 2 to 18 cm (1- to 4-leaf stage). Treated plants and controls were maintained in a controlled growth environment for 14 to 21 d after which time all species were compared to controls and visually evaluated. Plant response ratings, summarized in Table D, are based on a scale of 0 to 100 where 0 is no effect and 100 is complete control. A dash (-) response means no test result.

[2] = system: barley, winter (winter barley, Hordeum vulgare)
Description: as §1, §2

[3] = system: foxtail, green (green foxtail, Setaria viridis)
Description: as §1, §2

[4] = system: oilseed rape (Brassica napus)
Description: as §1, §2

[5] = system: oat, wild (wild oat, Avena fatua)
Description: as §1, §2

[6] = system: mustard, wild (wild mustard, Sinapis arvensis)
Description: as §1, §2

[7] = system: pigweed (Amaranthus retroflexus)
Description: as §1, §2

[8] = system: field poppy (Papaver rhoeas)
Description: as §1, §2

[9] = system: wheat, spring (spring wheat, Triticum aestivum)
Description: as §1, §2

[10] = system: buckwheat, wild (wild buckwheat, Polygonum convolvulus)
Description: as §1, §2

[11] = system: canarygrass (Phalaris minor)
Description: as §1, §2

[12] = system: barley, spring (spring barley, Hordeum vulgare)
Description: as §1, §2

[13] = system: bluegrass (annual bluegrass, Poa annua)
Description: as §1, §2

[14] = Postemergence, 31 g ai/ha, scale 0 to 100 (0 no effect, 100 complete control)
[15] = Postemergence, 125 g ai/ha, visual rating on scale 0 (no effect) to 100 (complete control), 14 to 21 d
[16] = Postemergence, 250 g ai/ha, scale 0 to 100 (0 no effect, 100 complete control)
[17] = Preemergence, 62 g ai/ha, scale 0 to 100 (0 no effect, 100 complete control)
[18] = Preemergence, 125 g ai/ha, scale 0 to 100 (0 no effect, 100 complete control)
[19] = Preemergence, 250 g ai/ha, scale 0 to 100, 0 no effect, 100 complete control
[20] = postemergence, 62 g ai/ha, scale 0 to 100, 0 no effect, 100 complete control

## Cn1nc(Br)c(O)c(-c2cccc3ccccc23)c1=O [Compound 20]
[1]; [14]
  Galium plant response rating: 70
[1]; [15]
  Plant response rating, Galium: 100
[1]; [16]
  Plant response rating, Galium: 100
[1]; Preemergence, 31 g ai/ha
  Plant response rating (scale of 0 to 100), Galium: 10
[1]; [17]
  Plant response rating, Galium: 30
[1]; [18]
  Plant response rating, Galium: 75
[1]; [19]
  Plant response rating, Galium: 85
[1]; [20]
  Plant response rating, Galium: 75
[2]; [14]
  Plant response rating, Barley, Winter: 0
[2]; [15]
  Plant response rating, Barley, Winter: 0
[2]; [16]
  Plant response rating, Barley, Winter: 0
[2]; Preemergence, 31 g ai/ha
  Plant response rating (scale of 0 to 100), Barley, Winter: 0
[2]; [17]
  Plant response rating, Barley, Winter: 0
[2]; [18]
  Plant response rating, Barley, Winter: 0
[2]; [19]
  Barley, Winter plant response rating: 0
[2]; [20]
  Plant response rating, Barley, Winter: 0
[3]; [14]
  Foxtail, Green plant response rating: 15
[3]; [15]
  Plant response rating, Foxtail, Green: 40
[3]; [16]
  Plant response rating, Foxtail, Green: 70
[3]; Preemergence, 31 g ai/ha
  Plant response rating (scale of 0 to 100), Foxtail, Green: 25
[3]; [17]
  Plant response rating, Foxtail, Green: 60
[3]; [18]
  Plant response rating, Foxtail, Green: 75
[3]; [19]
  Plant response rating, Foxtail, Green: 85
[3]; [20]
  Plant response rating, Foxtail, Green: 35
[4]; [14]
  Oilseed Rape plant response rating: 0
[4]; [15]
  Plant response rating, Oilseed Rape: 5
[4]; [16]
  Plant response rating, Oilseed Rape: 5
[4]; Preemergence, 31 g ai/ha
  Plant response rating (scale of 0 to 100), Oilseed Rape: 0
[4]; [17]
  Plant response rating, Oilseed Rape: 0
[4]; [18]
  Plant response rating, Oilseed Rape: 0
[4]; [19]
  Plant response rating, Oilseed Rape: 0
[4]; [20]
  Plant response rating, Oilseed Rape: 0
[5]; [14]
  Oat, Wild plant response rating: 20
[5]; [15]
  Plant response rating, Oat, Wild: 60
[5]; [16]
  Plant response rating, Oat, Wild: 75
[5]; Preemergence, 31 g ai/ha
  Plant response rating (scale of 0 to 100), Oat, Wild: 35
[5]; [17]
  Plant response rating, Oat, Wild: 65
[5]; [18]
  Plant response rating, Oat, Wild: 85
[5]; [19]
  Plant response rating, Oat, Wild: 95
[5]; [20]
  Plant response rating, Oat, Wild: 25
[6]; [14]
  Mustard, Wild plant response rating: 75
[6]; [15]
  Plant response rating, Mustard, Wild: 100
[6]; [16]
  Plant response rating, Mustard, Wild: 100
[6]; Preemergence, 31 g ai/ha
  Plant response rating (scale of 0 to 100), Mustard, Wild: 25
[6]; [17]
  Plant response rating, Mustard, Wild: 35
[6]; [18]
  Plant response rating, Mustard, Wild: 100
[6]; [19]
  Plant response rating, Mustard, Wild: 100
[6]; [20]
  Plant response rating, Mustard, Wild: 100
[7]; [14]
  Pigweed plant response rating: 80
[7]; [15]
  Plant response rating, Pigweed: 100
[7]; [16]
  Plant response rating, Pigweed: 100
[7]; Preemergence, 31 g ai/ha
  Plant response rating (scale of 0 to 100), Pigweed: 30
[7]; [17]
  Plant response rating, Pigweed: 40
[7]; [18]
  Plant response rating, Pigweed: 100
[7]; [19]
  Plant response rating, Pigweed: 100
[7]; [20]
  Plant response rating, Pigweed: 100
[8]; [14]
  Field Poppy plant response rating: 30
[8]; [15]
  Plant response rating, Field Poppy: 100
[8]; [16]
  Plant response rating, Field Poppy: 100
[8]; Preemergence, 31 g ai/ha
  Plant response rating (scale of 0 to 100), Field Poppy: 70
[8]; [17]
  Plant response rating, Field Poppy: 70
[8]; [18]
  Plant response rating, Field Poppy: 95
[8]; [19]
  Plant response rating, Field Poppy: 100
[8]; [20]
  Plant response rating, Field Poppy: 60
[9]; [14]
  Wheat, Spring plant response rating: 0
[9]; [15]
  Plant response rating, Wheat, Spring: 15
[9]; [16]
  Plant response rating, Wheat, Spring: 20
[9]; Preemergence, 31 g ai/ha
  Plant response rating (scale of 0 to 100), Wheat, Spring: 0
[9]; [17]
  Plant response rating, Wheat, Spring: 15
[9]; [18]
  Plant response rating, Wheat, Spring: 25
[9]; [19]
  Plant response rating, Wheat, Spring: 45
[9]; [20]
  Plant response rating, Wheat, Spring: 15
[10]; [14]
  Buckwheat, Wild plant response rating: 80
[10]; [15]
  Plant response rating, Buckwheat, Wild: 100
[10]; [16]
  Plant response rating, Buckwheat, Wild: 100
[10]; Preemergence, 31 g ai/ha
  Plant response rating (scale of 0 to 100), Buckwheat, Wild: 15
[10]; [17]
  Plant response rating, Buckwheat, Wild: 20
[10]; [18]
  Plant response rating, Buckwheat, Wild: 100
[10]; [19]
  Plant response rating, Buckwheat, Wild: 100
[10]; [20]
  Plant response rating, Buckwheat, Wild: 100
[11]; [14]
  Canarygrass plant response rating: 10
[11]; [15]
  Plant response rating, Canarygrass: 45
[11]; [16]
  Plant response rating, Canarygrass: 55
[11]; Preemergence, 31 g ai/ha
  Plant response rating (scale of 0 to 100), Canarygrass: 25
[11]; [17]
  Plant response rating, Canarygrass: 35
[11]; [18]
  Plant response rating, Canarygrass: 70
[11]; [19]
  Plant response rating, Canarygrass: 80
[11]; [20]
  Plant response rating, Canarygrass: 30
[12]; [14]
  Plant response rating, Barley, Spring: 0
[12]; [15]
  Plant response rating, Barley, Spring: 0
[12]; [16]
  Plant response rating, Barley, Spring: 0
[12]; Preemergence, 31 g ai/ha
  Plant response rating (scale of 0 to 100), Barley, Spring: 0
[12]; [17]
  Plant response rating, Barley, Spring: 0
[12]; [18]
  Plant response rating, Barley, Spring: 0
[12]; [19]
  Barley, Spring plant response rating: 0
[12]; [20]
  Plant response rating, Barley, Spring: 0
[13]; [14]
  Bluegrass plant response rating: 10
[13]; [15]
  Plant response rating, Bluegrass: 30
[13]; [16]
  Plant response rating, Bluegrass: 40
[13]; Preemergence, 31 g ai/ha
  Plant response rating (scale of 0 to 100), Bluegrass: 10
[13]; [17]
  Plant response rating, Bluegrass: 15
[13]; [18]
  Plant response rating, Bluegrass: 25
[13]; [19]
  Bluegrass plant response rating: 35
[13]; [20]
  Plant response rating, Bluegrass: 25
